Laboratory results taken from US9428487B2, “Heteroaromatic amides and thioamides as pesticides” (Bayer Intellectual Property GmbH, priority 2008, dated 2016).
Read-outs that look alike come from different tables or passages of the source.

How the values were obtained:
[1] = Determination of log P values by HPLC on reversed-phase column (formic acid method); type: physicochemical; conditions: reversed-phase C 18, acidic range (pH 3.4), formic acid eluents, 55° C.; for chromatographic logP: read-out: logP (HCOOH)
Description: 1) Description of Method for Determining the Log P Values (Formic Acid Method)
The log P values reported in the table were determined according to EEC-Directive 79/831 Annex V.A8 by HPLC (High Performance Liquid Chromatography) on a reversed-phase column (C 18). […]
Eluent A: acetonitrile+1 ml of formic acid/liter. Eluent B: water+0.9 ml of formic acid/liter.
Gradient: from 10% eluent A/90% eluent B to 95% eluent A/5% eluent B in 4.25 min
The calibration was effected with unbranched alkan-2-ones (with 3 to 16 carbon atoms), whose log P values are known (determination of the log P values on the basis of the retention times by linear interpolation between two successive alkanones). The lambda-max values were determined with reference to the UV spectra from 200 nm to 400 nm in the maxima of the chromatographic signals.

[2] = tested on: green peach aphid (Myzus persicae); assay: Myzus test; type: in vivo; conditions: read-out: efficacy (aphids killed)
Description: • Solvent: 78.0 parts by weight of acetone • 1.5 parts by weight of dimethylformamide • Emulsifier: 0.5 part by weight of alkylaryl polyglycol ether
To produce an appropriate active ingredient formulation, 1 part by weight of active ingredient is mixed with the amounts of solvent and emulsifier specified and the concentrate is diluted to the desired concentration with emulsifier-containing water.
Chinese cabbage leaf slices (Brassica pekinensis) infested by all stages of the green peach aphid (Myzus persicae) are sprayed with an active ingredient formulation of the desired concentration.
After the desired time, the efficacy in % is determined 100% means that all aphids have been killed; 0% means that no aphids have been killed.

[3] = reversed-phase HPLC column (C 18), pH 3.4, HPLC
[4] = application rate 500 g/ha, spray on Chinese cabbage leaf slices

| Compound | chromatographic logP [1, 3] | logP (HCOOH) ([1]; HPLC) | pest or weed control at 500 g/ha [2, 4] | chromatographic logP ([1]; HPLC) | pest or weed control at 500 g/ha ([2]; in Brassica rapa) |
| --- | --- | --- | --- | --- | --- |
| CC(c1ccccn1)N(C)C(=O)c1cnc(-c2cccnc2)s1 (centres unmarked) [Compound 154] | 1.21 |  | ≥ 70% |  |  |
| Cc1nc(-c2cccnc2)sc1C(=O)NCc1ccncn1 [Compound 126] | 0.9 |  | ≥ 70% |  |  |
| Cc1nc(-c2cccnc2)sc1C(=O)NCC1OCCCO1 [Compound 92] | 1.27 |  | ≥ 70% |  |  |
| Cc1nc(-c2cncnc2)sc1C(=O)N(C)C [Compound 23] | 1 |  |  |  |  |
| Cc1nc(-c2cncnc2)sc1C(=O)NCC(F)(F)F [Preparation Example 5] | 1.61 |  | ≥ 70% |  |  |
| CC#CCN(CC(F)(F)F)C(=O)c1sc(-c2cccnc2)nc1C [Compound 139] | 2.47 |  | ≥ 70% |  |  |
| Cn1nc(-c2cccnc2)cc1C(=O)NCc1ccon1 [Compound 29] | 0.56 |  | ≥ 70% |  |  |
| COC(=O)N(C)NC(=O)c1sc(-c2cccnc2)nc1C [Compound 196] |  |  | ≥ 70% | 1.23 |  |
| Cc1nc(-c2cccnc2)sc1C(=O)NCc1ccc(Cl)nc1 [Compound 115] | 1.71 |  | ≥ 70% |  |  |
| O=C(NCC(F)(F)F)c1cc(-c2cccnc2)n[nH]1 [Compound 33] | 0.72 |  | ≥ 70% |  |  |
| Cc1nc(CNC(=O)c2cc(-c3cccnc3)nn2C)no1 [Compound 26] | 0.54 |  | ≥ 70% |  |  |
| O=C(NCc1ccncn1)c1cnc(-c2cccnc2)s1 [Compound 81] | 0.73 |  | ≥ 70% |  |  |
| Cc1nc(-c2cccnc2)sc1C(=O)NN(C)Cc1ccccn1 [Compound 200] | 1.01 |  | ≥ 70% |  |  |
| CCOC(=O)c1nnc(-c2cccnc2)s1 [ethyl 5-pyridin-3-yl[1,3,4]thiadiazole-2-carboxylate] | 1.41 |  |  |  |  |
| Cc1nc(-c2ccc[n+]([O-])c2)sc1C(=O)NCC(F)(F)F [Compound 78] | 1.31 |  | ≥ 70% |  |  |
| Cc1nc(-c2cccnc2)sc1C(=O)NC1CCCC(C(F)(F)F)C1 (centres unmarked) [Compound 149] | 2.48 |  | ≥ 70% |  |  |
| Cn1nc(-c2cccnc2)cc1C(=O)NCC(F)F [Compound 25] | 0.65 |  | ≥ 70% |  |  |
| CCC(=O)N(CC(F)(F)F)C(=O)c1sc(-c2cccnc2)nc1C [Compound 89] | 2.61 |  | ≥ 70% |  |  |
| Cc1nc(Cl)sc1C(=O)NCC(F)(F)F | 1.97 |  |  |  |  |
| Cc1nc(-c2cncnc2)sc1C(=O)NCc1ncccn1 [Compound 22] | 1.05 |  | ≥ 70% |  |  |
| Cc1nc(-c2cccnc2)sc1C(=O)N(C)Cc1ccccn1 [Compound 93] | 1.19 |  | ≥ 70% |  |  |

| Compound | chromatographic logP [1, 3] | logP (HCOOH) ([1]; HPLC) | pest or weed control at 500 g/ha [2, 4] | chromatographic logP ([1]; HPLC) | pest or weed control at 500 g/ha ([2]; in Brassica rapa) |
| --- | --- | --- | --- | --- | --- |
| Cc1nc(-c2cccnc2)sc1C(=O)N(C)C(C)c1ccccn1 (centres unmarked) [Compound 111] | 1.45 |  | ≥ 70% |  |  |
| C=CN(Cc1ncccn1)C(=O)c1cc(-c2cncc(F)c2)nn1C [Compound 13] | 1.75 |  | ≥ 70% |  |  |
| CN(C)C(=O)c1nnc(-c2cccnc2)s1 [Preparation Example 8, N,N-dimethyl-5-pyridin-3-yl[1,3,4]thiadiazole-2-carboxamide] |  |  |  | 0.95 | ≥ 70% |
| Cc1nc(-c2cncc(Cl)c2)sc1C(=O)NCC(F)(F)F [Compound 14] | 2.5 |  | ≥ 70% |  |  |
| Cc1nc(-c2cccnc2)sc1C(=O)NNc1ncccn1 [Compound 128] | 0.75 |  | ≥ 70% |  |  |
| Cc1nc(-c2cccnc2)sc1C(=O)NCc1nc(C2CC2)no1 [Compound 172] | 1.63 |  | ≥ 70% |  |  |
| C=CC[n+]1cccc(-c2nc(C)c(C(=O)NCC(F)(F)F)s2)c1 [Compound 122] | 1.13 |  | ≥ 70% |  |  |
| Cc1nc(-c2cccnc2)sc1C(=O)N(C)CC1COCCO1 (centres unmarked) [Compound 159] | 1.26 |  | ≥ 70% |  |  |
| Cc1cc(CN(C)C(=O)c2sc(-c3cccnc3)nc2C)no1 [Compound 164] | 1.52 |  | ≥ 70% |  |  |
| CCN(CC1CCCO1)C(=O)c1sc(-c2cccnc2)nc1C (centres unmarked) [Compound 187] | 1.64 |  | ≥ 70% |  |  |
| CN(CC1CCCO1)C(=O)c1cnc(-c2cccnc2)s1 (centres unmarked) [Compound 180] | 1.33 |  | ≥ 70% |  |  |
| Cc1nc(-c2cccnc2)sc1C(=O)NCc1ccncc1 [Compound 169] | 0.69 |  | ≥ 70% |  |  |
| Cc1nc(-c2cncc(F)c2)sc1C(=O)N(C)C [Compound 19] | 1.49 |  |  |  |  |
| Cc1nc(-c2cncc(I)c2)sc1C(=O)NCc1ncccn1 [Compound 18] | 1.87 |  |  |  |  |
| Cc1nc(-c2cncc(I)c2)sc1C(=O)NCC(F)(F)F [Compound 20] | 2.75 |  |  |  |  |
| O=C(O)c1cnc(-c2cccnc2)s1 [2-pyridin-3-ylthiazole-5-carboxylic acid] | 0.42 |  |  |  |  |
| Cc1nc(-c2cncc(Cl)c2)sc1C(=O)N(C)C [Compound 17] | 1.8 |  |  |  |  |
| Cc1nc(-c2cncc(Cl)c2)sc1C(=O)N(C)CC(F)(F)F [Preparation Example 2] | 2.72 |  |  |  |  |
| CCOC(=O)c1cnc(-c2cccnc2)s1 [ethyl 2-pyridin-3-ylthiazole-5-carboxylate] | 1.93 |  |  |  |  |
| CON(C)C(=O)c1cc(-c2cccnc2)nn1C [Preparation Example 6] | 0.49 |  |  |  |  |

Now from value to compound, other results behind:

| chromatographic logP [1, 3] | logP (HCOOH) ([1]; HPLC) | Compound | pest or weed control at 500 g/ha [2, 4] | chromatographic logP ([1]; HPLC) | pest or weed control at 500 g/ha ([2]; in Brassica rapa) |
| --- | --- | --- | --- | --- | --- |
| 1.69 |  | Cc1nc(-c2cccnc2)sc1C(=O)NC(C)(C#N)C1CCCO1 (centres unmarked) [Compound 157] | ≥ 70% |  |  |
| 1.16 |  | Cc1nc(-c2cccnc2)sc1C(=O)N[C@H]1C[C@@H]1F [Compound 54] | ≥ 70% |  |  |
| 1.76 |  | Cc1nc(-c2cccnc2)sc1C(=O)NC(C)(C#N)C1CC1 (centres unmarked) [Compound 94] | ≥ 70% |  |  |
| 1.5 |  | Cc1nc(-c2cccnc2)sc1C(=O)N(C)CC(C)F (centres unmarked) [Compound 80] | ≥ 70% |  |  |
| 1.48 |  | Cc1nc(-c2cccnc2)sc1C(=O)N(C)CC(F)F [Compound 41] | ≥ 70% |  |  |
| 1.33 |  | COC(CNC(=O)c1sc(-c2cccnc2)nc1C)OC [Compound 101] | ≥ 70% |  |  |
| 2.39 | 2.38 | Cc1nc(-c2cccnc2)sc1C(=S)NCC(F)(F)F [Preparation Example 4] | ≥ 70% |  |  |
| 1.94 |  | Cc1nc(-c2cccnc2)sc1C(=O)NC(C)CC(F)(F)F (centres unmarked) [Compound 86] | ≥ 70% |  |  |
| 2.06 |  | COCN(CC(F)(F)F)C(=O)c1sc(-c2cccnc2)nc1C [Compound 69] | ≥ 70% |  |  |
| 1.27 |  | Cc1nc(-c2cccnc2)sc1C(=O)NC(C)C1=NOCCO1 (centres unmarked) [Compound 49] | ≥ 70% |  |  |
| 1.16 |  | Cc1nc(-c2cccnc2)sc1C(=O)N[C@@H]1C[C@@H]1F [Compound 83] | ≥ 70% |  |  |
| 1.51 |  | Cc1nc(-c2cccnc2)sc1C(=O)NCC1OCC(CCl)O1 (centres unmarked) [Compound 132] | ≥ 70% |  |  |
| 1.15 |  | Cc1cnc(CNC(=O)c2sc(-c3cccnc3)nc2C)cn1 [Compound 77] | ≥ 70% |  |  |
| 1.23 |  | COC1(NC(=O)c2sc(-c3cccnc3)nc2C)CC1 [Compound 129] | ≥ 70% |  |  |
| 1.4 |  | Cc1nc(-c2cccnc2)sc1C(=O)NCC1CCCO1 (centres unmarked) [Compound 103] | ≥ 70% |  |  |
|  | 1.65 | CSC[C@H](C)NC(=O)c1sc(-c2cccnc2)nc1C [Compound 68] |  |  |  |
| 1.48 |  | Cc1nc(-c2cccnc2)sc1C(=O)NC(C)(C)C#N [Compound 52] | ≥ 70% |  |  |
| 1.81 |  | Cc1nc(-c2cccnc2)sc1C(=O)N(C)CC(F)(F)F [Compound 42] | ≥ 70% |  |  |
| 1.69 |  | Cc1nc(-c2cccnc2)sc1C(=O)NCC(C)Cl (centres unmarked) [Compound 125] | ≥ 70% |  |  |
| 1.36 |  | COC(=O)C(C)NC(=O)c1sc(-c2cccnc2)nc1C (centres unmarked) [Compound 84] | ≥ 70% |  |  |
|  | 1.57 | Cc1nc(-c2cccnc2)sc1C(=O)NC(C#N)C(C)C (centres unmarked) [Compound 64] |  |  |  |
|  | 1.13 | Cc1nc(-c2cccnc2)sc1C(=O)NCC(C)F (centres unmarked) [Compound 76] |  |  |  |
